Measured values taken from ChEMBL document CHEMBL5532636 (Eur J Med Chem, 2023).

Tested on: SARS-CoV-2
Assay: Antiviral activity against SARS-CoV-2 Omicron BA.5 variant infected in African green monkey Vero E6 cells assessed as inhibition in viral replication at 25 ug/ml preincubated with cell culture for 1 hr and further infected with virus for 1 hr followed by removal of virus particles and subsequent replacement of medium containing compound measured for 72 hrs post-infection by RT-PCR analysis relative to control
Format: functional
Details: Severe acute respiratory syndrome coronavirus 2, Omicron BA.5, Vero C1008, time 73 hrs

## O=c1cc(-c2ccccc2)oc2cc(O)c(O)c(O)c12 [BAICALEIN]
  inhibition at 25 µg/mL: > 50%
